Data on 19 compounds can be found in patent US20210315893A1 (Galapagos NV, priority 2017, published 2021).

The target in test [1] is T1, S1PR2 (Homo sapiens, UniProt O95136).
T1 construct: expressed in transfected cells
Briefly: S1PR2 binding assay (competition with radioactively labeled S1P, SpA). As to conditions: membranes from stable cell line over expressing S1PR2, SpA beads; read-out: S1P2 EC50 (nM), S1PR2 binding EC50. Here is the method:
The following assay can be used for determination of S1PR2 binding. The binding assay measures the potential to compete with radioactively labeled S1P for binding to the receptor.
The assay is performed in a96 well plate where the following reagents are added. First 50 μL compound is added into the assay plate, followed by addition of 100 μL ofa mixture consisting of membrane and Scintillation proximity Assay (SpA) beads [mixture consists […] membranes derived from stable cell line over expressing SPR2, 0.5 mg/well Polyvinyltoluene-Wheat Germ-Agglutinin (PVT-WGA) beads (Perkin Elmer, RPNQOO1)]. All components are diluted in assay buffer containing 20 mM Tris pH 7.5; 10 mM MgCl2; 100 mM NaCl; 0.4% BSA FAF; 1 mM Na3VO4) and incubated for 15 min until addition to the assay plate. Subsequently, 50 ul of radioactively labeled S1P is added to the wells (Sphingosine, D-erythro-[3-3H] 1-phosphate; ARC; ART0778). After an incubation for 2 h at room temperature, plates are centrifuged at 2000 rpm during 20 min. Plates are read on a Topcount reader (Perkin Elmer) immediately after centrifugation (readout time, 1 min/well).

For test [2], the target named is T2, human GPCR sphingosine 1-phosphate receptor 2 (Homo sapiens, UniProt O95136).
T2 construct: host or cells: CHO
T2 sequence (O95136 whole entry): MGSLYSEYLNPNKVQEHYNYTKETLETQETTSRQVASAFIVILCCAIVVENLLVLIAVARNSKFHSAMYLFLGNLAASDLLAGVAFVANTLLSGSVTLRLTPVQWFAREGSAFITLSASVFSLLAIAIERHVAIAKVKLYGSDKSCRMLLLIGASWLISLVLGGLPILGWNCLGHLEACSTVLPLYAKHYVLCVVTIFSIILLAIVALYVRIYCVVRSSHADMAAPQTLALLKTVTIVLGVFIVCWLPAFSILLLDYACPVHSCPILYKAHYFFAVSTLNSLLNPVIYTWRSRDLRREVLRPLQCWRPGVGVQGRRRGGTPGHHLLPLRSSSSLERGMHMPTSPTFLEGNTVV
Briefly: S1PR2 antagonist Ca2+ flux assay. In kind it is cell-based. Particulars: antagonist mode, CHO-S1PR2 cells, S1P at EC80, Ca2+ fluorescence; read-out: S1P2 EC50 (nM), S1P2 antagonist EC50. Here is the method: Triggering of S1PR2 by administration of Sphingosine-1-phosphate leads to a transient increase in intracellular Ca^2+. The Ca^2+ flux assays are measuring the release of Ca^2+ intracellularly by use of a Ca^2+ sensitive fluorescent dye. The assay is firstly run in agonist mode (incubation of compounds alone) to ensure that the Ca^2+ released measured is not caused by the test compound having an agonistic effect. Then the assay is continued in antagonist mode (Sphingosine-1-Phosphate added to incubated medium containing the test compounds).
CHO cells stably overexpressing human GPCR sphingosine 1-phosphate receptor 2 (CHO-S1PR2 Perkin Elmer; ES-594-A) are seeded from a frozen stock in 384 wells sterile microplates (50 μL; 7,500 cells/well) and are incubated overnight at 37° C. and 5% CO2. The next day cells are washed twice with starvation medium (F-12 Ham's medium containing 0.1% BSA (Fatty acid free: FAF)) and left in 25 μL starvation medium for 1 h at 37° C., 5% CO2. After this starvation cells are incubated with 25 μL buffer containing the Ca^2+-sensitive fluorescent dye (0.5 mg Fluo8+125 mg Allura Red in 100 mL of 1% DMSO, in HBSS+20 mM Hepes+5 mM probenecid). The cells are incubated for an additional 1 h after which 10 μL compounds, diluted in HBSS buffer with 20 mM Hepes and 0.1% BSA (FAF), are added to the cells and intracellular Ca2+ changes are immediately measured by reading fluorescence during 3 min (FDSS/pCELL reader). The ratio of the maximal fluorescence over the background fluorescence before compound injection is used to determine compound response.
After readout of the agonist activity, the plates are incubated for 15 min at 37° C. and 5% CO2. Then, cells are stimulated with 10 μL Sphingosine-1-Phosphate (S1P) (Avanti Polar lipids-860492P) at its EC80 concentration. Intracellular Ca2+ changes are immediately measured by reading fluorescence during 3 min (FDSS/pCELL reader). The ratio of the maximal fluorescence over the background fluorescence before compound injection is used to determine compound response.
The obtained ratio's for agonist and antagonist readout were normalized versus vehicle and EC 100 of S1P ascontrols for agonist mode and versus vehicle and […]. From these normalized data EC50 of the compounds are derived.

Structures are written as SMILES.

T1 sequence (O95136 whole entry): as above

As to `Cc1cccc2c(=O)n(CC(=O)N3CCOCC3)nc(Cc3nc4cc(OCC(F)F)c(C#N)cc4[nH]3)c12` [Compound 66, 6-(2,2-difluoroethoxy)-2-[[8-methyl-3-(2-morpholino-2-oxo-ethyl)-4-oxo-phthalazin-1-yl]methyl]-3H-benzimidazole-5-carbonitrile], the EC50 – broadly, the concentration needed to bring the measured effect to its halfway point – in test [1] worked out at 57.1 nM; in test [2], 18.9 nM.

As to `CCOc1cc2nc(Cc3nn(CC(=O)O)c(=O)c4ccccc34)[nH]c2cc1F` [Compound 129, 2-[4-[(5-ethoxy-6-fluoro-1H-benzimidazol-2-yl)methyl]-1-oxo-phthalazin-2-yl]acetic acid], the values for the concentration giving a half-maximal response (EC50) in test [1] and in test [2] were 1390 nM and 79.3 nM, respectively.

In the case of `O=C(O)Cn1nc(Cc2nc3cc(OCC(F)F)c(F)cc3[nH]2)c2ccccc2c1=O` [Compound 130, 2-[4-[[5-(2,2-difluoroethoxy)-6-fluoro-1H-benzimidazol-2-yl]methyl]-1-oxo-phthalazin-2-yl]acetic acid], the half-maximal effective concentration (EC50) in test [1] is 2500 nM; in test [2] it was 63.8 nM.

Turning to `CC(C)(C)NC(=O)Cn1nc(Cc2nc3cc(Cl)c(OC(F)(F)F)cc3[nH]2)c2c(c1=O)CCCC2` [Compound 147], the results for the EC50 in test [1] and in test [2] were 1090 nM and 1380 nM, respectively.

For `N#Cc1cc2nc(Cc3nn(CC(=O)N4CCOCC45CCC5)c(=O)c4ccccc34)[nH]c2cc1OCC(F)F` [Compound 189, 6-(2,2-difluoroethoxy)-2-[[3-[2-(6-oxa-9-azaspiro[3.5]nonan-9-yl)-2-oxo-ethyl]-4-oxo-phthalazin-1-yl]methyl]-1H-benzimidazole-5-carbonitrile], the values for the 50% effective concentration (EC50) in test [1] and in test [2] were 558 nM and 143 nM, respectively.

Take `CC(C)(C)C(O)CNC(=O)Cn1nc(Cc2nc3cc(OCC(F)F)c(C#N)cc3[nH]2)c2ccccc2c1=O` (centres unmarked) [Compound 222, 2-[4-[[6-cyano-5-(2,2-difluoroethoxy)-1H-benzimidazol-2-yl]methyl]-1-oxo-phthalazin-2-yl]-N-(2-hydroxy-3,3-dimethylbutyl)acetamide]: the EC50 was determined as 137 nM in test [1] and 26.1 nM in test [2].

With `N#Cc1cc2[nH]c(Cc3nn(CC(=O)NCC(F)F)c(=O)c4ccccc34)nc2cc1OCC(F)F` [Compound 223, 2-[4-[[6-cyano-5-(2,2-difluoroethoxy)-1H-benzimidazol-2-yl]methyl]-1-oxo-phthalazin-2-yl]-N-(2,2-difluoroethyl)acetamide], the concentration for a half-maximal effect (EC50) in test [1] was 330 nM; in test [2] it was 68.8 nM.

As for `N#Cc1cc2[nH]c(Cc3nn(CC(=O)NCCC(F)(F)F)c(=O)c4ccccc34)nc2cc1OCC(F)F` [Compound 224, 2-[4-[[6-cyano-5-(2,2-difluoroethoxy)-1H-benzimidazol-2-yl]methyl]-1-oxo-phthalazin-2-yl]-N-(3,3,3-trifluoropropyl)acetamide], the values for the EC50 in test [1] and in test [2] were 232 nM and 19.6 nM, respectively.

In the case of `N#Cc1cc2[nH]c(Cc3nn(CC(=O)NC(C#N)C4CC4)c(=O)c4ccccc34)nc2cc1OCC(F)F` (centres unmarked) [Compound 226, N-[cyano-(cyclopropyl)methyl]-2-[4-[[6-cyano-5-(2,2-difluoroethoxy)-1H-benzimidazol-2-yl]methyl]-1-oxo-phthalazin-2-yl]acetamide], the half-maximal effective concentration (EC50) in test [1] turned out to be 552 nM; in test [2], 66.2 nM.

For the compound `N#Cc1cc2[nH]c(Cc3nn(CC(=O)NCC(F)(F)CO)c(=O)c4ccccc34)nc2cc1OCC(F)F` [Compound 228, 2-[4-[[6-cyano-5-(2,2-difluoroethoxy)-1H-benzimidazol-2-yl]methyl]-1-oxo-phthalazin-2-yl]-N-(2,2-difluoro-3-hydroxypropyl)acetamide], the figures for the concentration giving a half-maximal response (EC50) in test [1] and in test [2] were 52.5 nM and 21.1 nM, respectively.

`N#Cc1cc2[nH]c(Cc3nn(CC(=O)NCCS(N)(=O)=O)c(=O)c4ccccc34)nc2cc1OCC(F)F` [Compound 229, 2-[4-[[6-cyano-5-(2,2-difluoroethoxy)-1H-benzimidazol-2-yl]methyl]-1-oxo-phthalazin-2-yl]-N-(2-sulfamoylethyl)acetamide]: the concentration giving a half-maximal response (EC50) in test [1] was 503 nM; in test [2], 120 nM.

Take `N#Cc1cc2[nH]c(Cc3nn(CC(=O)NCC(F)(F)F)c(=O)c4ccccc34)nc2cc1OCC(F)F` [Compound 230, 2-[4-[[6-cyano-5-(2,2-difluoroethoxy)-1H-benzimidazol-2-yl)methyl]-1-oxo-phthalazin-2-yl]-N-(2,2,2-trifluoroethyl)acetamide]: the EC50 turned out to be 1950 nM in test [1] and 408 nM in test [2].

In the case of `N#Cc1cc2[nH]c(Cc3nn(CC(=O)N4CCCC(O)C4)c(=O)c4ccccc34)nc2cc1OCC(F)F` (centres unmarked) [Compound 231, 6-(2,2-difluoroethoxy)-2-[[3-[2-(3-hydroxy-1-piperidyl)-2-oxo-ethyl]-4-oxo-phthalazin-1-yl]methyl]-3H-benzimidazole-5-carbonitrile], the EC50 in test [1] stood at 453 nM; in test [2] it was 77.9 nM.

For the compound `N#Cc1cc2[nH]c(Cc3nn(CC(=O)NCC4CC(F)(F)C4)c(=O)c4ccccc34)nc2cc1OCC(F)F` [Compound 232, 2-[4-[[6-cyano-5-(2,2-difluoroethoxy)-1H-benzimidazol-2-yl]methyl]-1-oxo-phthalazin-2-yl]-N-[(3,3-difluorocyclobutyl)methyl]acetamide], the results for the EC50 in test [1] and in test [2] were 122 nM and 16.3 nM, respectively.

Regarding `CN(C)C(=O)C1CCN(C(=O)Cn2nc(Cc3nc4cc(OCC(F)F)c(C#N)cc4[nH]3)c3ccccc3c2=O)CC1` [Compound 236, 1-[2-[4-[[6-cyano-5-(2,2-difluoroethoxy)-1H-benzimidazol-2-yl]methyl]-1-oxo-phthalazin-2-yl]acetyl]-N,N-dimethyl-piperidine-4-carboxamide], the figures for the concentration giving a half-maximal response (EC50) in test [1] and in test [2] were 2090 nM and 958 nM, respectively.

Turning to `CC(C)(O)C1CCCN(C(=O)Cn2nc(Cc3nc4cc(OCC(F)F)c(C#N)cc4[nH]3)c3ccccc3c2=O)C1` (centres unmarked) [Compound 237, 6-(2,2-difluoroethoxy)-2-[[3-[2-[3-(1-hydroxy-1-methyl-ethyl)-1-piperidyl]-2-oxo-ethyl]-4-oxo-phthalazin-1-yl]methyl]-3H-benzimidazole-5-carbonitrile], the EC50 in test [1] turned out to be 650 nM; in test [2], 55.8 nM.

Turning to `N#Cc1cc2[nH]c(Cc3nn(CC(=O)N4CC5(CCOCC5)C4)c(=O)c4ccccc34)nc2cc1OCC(F)F` [Compound 239, 6-(2,2-difluoroethoxy)-2-[[3-[2-(7-oxa-2-azaspiro[3.5]nonan-2-yl)-2-oxo-ethyl]-4-oxo-phthalazin-1-yl]methyl]-3H-benzimidazole-5-carbonitrile], the concentration giving a half-maximal response (EC50) in test [1] turned out to be 1740 nM; in test [2], 781 nM.

As for `CCS(=O)(=O)C1CCN(C(=O)Cn2nc(Cc3nc4cc(OCC(F)F)c(C#N)cc4[nH]3)c3ccccc3c2=O)CC1` [Compound 240, 6-(2,2-difluoroethoxy)-2-[[3-[2-(4-ethylsulfonyl-1-piperidyl)-2-oxo-ethyl]-4-oxo-phthalazin-1-yl]methyl]-3H-benzimidazole-5-carbonitrile], the EC50 amounted to 1300 nM in test [1] and 345 nM in test [2].

Take `CN(C)C(=O)CN(C)C(=O)Cn1nc(Cc2nc3cc(OCC(F)F)c(C#N)cc3[nH]2)c2ccccc2c1=O` [Compound 241, 2-[4-[[6-cyano-5-(2,2-difluoroethoxy)-1H-benzimidazol-2-yl]methyl]-1-oxo-phthalazin-2-yl]-N-[2-(dimethylamino)-2-oxo-ethyl]-N-methyl-acetamide]: the concentration giving a half-maximal response (EC50) in test [1] is 372 nM; in test [2], 47.2 nM.
